Data as given in PubChem BioAssay (NCI).
Where “and” joins values, the source holds several entries; their conditions need not be identical. Equal values may be shown once.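 Grown in 96-well plates, cells were treated for 48 hours with each compound at five concentrations. Insufficient inhibition: endpoint recorded as highest concentration tested. GI50 = concentration required for 50% inhibition of growth. The concentration for full growth arrest is given as TGI.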 Where a SMILES comes first, the peptide text is derived from it. [ ]: non-standard residue; d: D form. pGlu = O=C1CC[CH](C(=O)O)N1

Columns and labels:
Test in all cases: NCI anticancer screen, dose series, 48 h
COLO 205 colon = system: COLO 205 colon
RPMI-8226 leukemia = system: RPMI-8226 leukemia
ACHN renal = system: ACHN renal
KM12 colon = system: KM12 colon
BT-549 breast = system: BT-549 breast
UACC-62 melanoma = system: UACC-62 melanoma
HCT-15 colon = system: HCT-15 colon
OVCAR-4 ovarian = system: OVCAR-4 ovarian
RXF 393 renal = system: RXF 393 renal
MOLT-4 leukemia = system: MOLT-4 leukemia

SMILES	GI50 (COLO 205 colon)	TGI (COLO 205 colon)	GI50 (RPMI-8226 leukemia)	TGI (RPMI-8226 leukemia)	GI50 (ACHN renal)	TGI (ACHN renal)	GI50 (KM12 colon)	TGI (KM12 colon)	GI50 (BT-549 breast)	TGI (BT-549 breast)	GI50 (UACC-62 melanoma)	TGI (UACC-62 melanoma)	GI50 (HCT-15 colon)	TGI (HCT-15 colon)	GI50 (OVCAR-4 ovarian)	TGI (OVCAR-4 ovarian)	GI50 (RXF 393 renal)	TGI (RXF 393 renal)	GI50 (MOLT-4 leukemia)	TGI (MOLT-4 leukemia)
Oc1c(-c2nnc(-c3ccccc3Cl)o2)sc2nnc(-c3ccccc3)c(-c3ccccc3)c12	4400 nM	> 100 µM	2920 nM	> 100 µM	3.46 µM	89.7 µM	4360 nM	51.3 µM	12.6 µM	> 100 µM	2.64 µM	9.49 µM	813 nM	> 100 µM	4.49 µM	> 100 µM	24.6 µM	> 100 µM	3880 nM	> 100 µM
Cc1c[n+](=O)c2ccccc2n1[O-]		> 100 µM		> 100 µM		> 100 µM		> 100 µM		> 100 µM		> 100 µM		> 100 µM		> 100 µM		> 100 µM		> 100 µM
C=C(C)[C@@H]1CC[C@]2(C)CC[C@]3(C)[C@H](CC[C@@H]4[C@@]5(C)CC[C@H](O)C(C)(C)[C@@H]5CC[C@]43C)[C@@H]12		> 100 µM		> 100 µM		> 100 µM		> 100 µM		29.3 µM		> 100 µM		> 100 µM		> 100 µM		28.7 µM		> 70.3 µM
C=C1C(=O)O[C@H]2[C@H]1CC/C(CNC(=O)/C=C/c1cc(OC)c(OC)c(OC)c1)=C\CC[C@@]1(C)O[C@@H]21	618 nM	2.45 µM	1590 nM	5.47 µM	1.27 µM	2.89 µM	7620 nM	21.1 µM	1.51 µM	3.95 µM	0.73 µM	2.92 µM	2960 nM	13.5 µM	1.51 µM	10.5 µM	0.298 µM	1.88 µM	2090 nM	6.22 µM
O.O.[NH-]C1(C(=O)O)CCCC1.[NH-]C1(C(=O)O)CCCC1.[Ni+2]		> 100 µM		> 100 µM	> 100 µM	> 100 µM		> 100 µM	> 100 µM	> 100 µM		> 100 µM		> 100 µM		> 100 µM		> 100 µM		> 100 µM
OC(Cc1ccncc1)C(Cl)(Cl)Cl (configuration not stated)	> 100000 nM	> 100 µM	58.6 nM	> 100 µM	> 100 µM	> 100 µM	> 100000 nM	> 100 µM	> 100 µM	> 100 µM	> 100 µM	> 100 µM	> 100000 nM	> 100 µM	> 100 µM	> 100 µM	> 100 µM	> 100 µM	98.8 nM	> 100 µM
COc1ncnc2c(-c3ccccc3)cn(COCc3ccccc3)c12	2690 nM	7.73 µM	2030 nM	13 µM	3.82 µM	> 100 µM	3100 nM	19.9 µM	2.57 µM	7.6 µM	2.1 µM	8.81 µM	2480 nM	> 100 µM	2.26 µM	9.5 µM	2.5 µM	7.71 µM	2700 nM	7.12 µM
COc1cccc(N2CCN(CC(=O)N3CCN(c4nnc(-c5ccc(Cl)cc5)c(-c5ccc(Cl)cc5)n4)CC3)CC2)c1	22200 nM	> 100 µM	4630 nM	> 100 µM	10.8 µM	32.1 µM	14300 nM	> 100 µM	12.9 µM	> 100 µM	31.3 µM	> 100 µM	8350 nM	> 100 µM	25.3 µM	> 100 µM	28.7 µM	> 100 µM	3100 nM	> 100 µM
CC[C@@H]1c2c(C#N)ncn2-c2cnc(Nc3ccc(C(=O)NC4CCN(C5CCN(CC6CC6)CC5)CC4)cc3OC)nc2N1C1CCCC1			83 nM	2.97 µM	0.625 µM	1.93 µM	36.3 nM and 33.8 nM	1.07 µM and 1.05 µM	0.485 µM	1.85 µM	0.372 µM	1.79 µM	379 nM	1.44 µM	0.214 µM	1.7 µM	0.0462 µM	1.8 µM	37 nM	1.51 µM
CSC(=Nc1nnc(-c2ccc([N+](=O)[O-])cc2)s1)SC		> 100 µM		> 100 µM		> 100 µM		> 100 µM		> 100 µM		> 76.5 µM		> 100 µM		> 85 µM		45.4 µM		> 100 µM
ClCc1cccc2c(CCl)cccc12	2400 nM	7.14 µM	2000 nM	7.41 µM	2.19 µM	6.21 µM	1550 nM	3.48 µM	3.99 µM	16.7 µM	3.25 µM	23.3 µM	5920 nM	30.1 µM	12 µM	75.7 µM	3.33 µM	18 µM	3980 nM	> 100 µM
CN(CCO)CC[C@H](CSc1ccccc1)Nc1ccc(S(=O)(=O)NC(=O)c2ccc(N3CCC([C@@H](O)c4ccccc4-c4ccc(Cl)cc4)CC3)cc2)cc1S(=O)(=O)C(F)(F)F	1460 nM	4.5 µM	160 nM	2.94 µM	> 27.8 µM	> 100 µM	3180 nM	13.8 µM	2.69 µM	11 µM	1.8 µM	4.13 µM	> 100000 nM	> 100 µM	17.6 µM	> 100 µM	0.311 µM	1.54 µM	71.9 nM	1.11 µM
O=C1C(Cl)=C(Nc2cccc(F)c2)C(=O)N1Cc1ccc(Cl)cc1	516 nM	11.9 µM	502 nM	14.2 µM	2.54 µM	15.2 µM	2660 nM	19.1 µM	0.841 µM	13.4 µM		2.48 µM	398 nM		4.04 µM	24.6 µM	0.39 µM	4.91 µM	506 nM	> 100 µM
COC(=O)c1ccc(-c2nc3cc(Cl)c(Cl)cc3nc2C#N)cc1	> 100000 nM	> 100 µM			> 100 µM	> 100 µM	> 100000 nM	> 100 µM	> 100 µM	> 100 µM	> 100 µM	> 100 µM	> 100000 nM	> 100 µM	> 100 µM	> 100 µM	> 100 µM	> 100 µM	> 100000 nM	> 100 µM
O=C(c1ccccc1)c1ccccc1-c1ccccc1	2870 nM	8.37 µM	4910 nM	52 µM	9.46 µM	> 100 µM	1160 nM	43.3 µM	10.3 µM	> 100 µM	4.43 µM	> 100 µM	2740 nM	> 100 µM	18.7 µM	> 100 µM	3.17 µM	22.7 µM		
COc1ccc2[nH]cc(-c3ccc(-c4c[nH]c5ccc(OC)cc45)s3)c2c1	4680 nM	11.5 µM	2830 nM	21 µM	4.14 µM	15.9 µM	2370 nM	6.67 µM	7.44 µM	20.9 µM	13.3 µM	30.8 µM	2730 nM	8.72 µM	6.82 µM	23.7 µM	3.51 µM	13.6 µM	1160 nM	6.95 µM
C[C@]12C[C@H](CCCCCCNCCOC(=O)NCCCc3ccc(N(CCCl)CCCl)cc3)C3=C4CCC(=O)C=C4CCC3C1CC[C@@H]2O (some centres not stated)	1450 nM	3.9 µM	304 nM	1.06 µM			1870 nM	> 21.6 µM	1.6 µM	3.09 µM							0.294 µM	1.21 µM	340 nM	1.56 µM
O=C(O)CN(CC(=O)O)Cc1cc(C#Cc2ccc(C#Cc3ccccc3)cc2)cc(CN(CC(=O)O)CC(=O)O)n1		36.2 µM		48.8 µM		97.5 µM		> 92 µM		66.6 µM		40.4 µM		> 59.6 µM		56 µM		> 62.7 µM		53.7 µM
CCCCCCCCNc1cc2c3c(c1)CCCN3CCC2	1870 nM	4.76 µM	5550 nM	> 100 µM	3.22 µM	17.7 µM	1630 nM	10.6 µM	2.28 µM	12.3 µM	2.16 µM	16.4 µM	10500 nM	38.5 µM	1.94 µM	12 µM	4.07 µM	17.9 µM	1090 nM	> 100 µM
C[C@@]1(C(=O)O)CCC[C@]2(C)C1CC[C@@]13CC(=O)[C@@](CO)(CC[C@]12O)C3 (some centres not stated)	6160 nM	> 100 µM	> 100000 nM	> 100 µM	> 100 µM	> 100 µM	> 100000 nM	> 100 µM	> 100 µM	> 100 µM	> 100 µM	> 100 µM	> 100000 nM	> 100 µM	> 100 µM	> 100 µM	> 100 µM	> 100 µM	> 100000 nM	> 100 µM
CCOC(=O)c1c(C)nc2c(c1N)CC(=O)N2Cc1ccc(OC)cc1	> 100000 nM	> 100 µM	> 100000 nM	> 100 µM	9.56 µM	> 100 µM	> 100000 nM	> 100 µM	6.3 µM	> 100 µM	34.1 µM	> 100 µM			> 100 µM	> 100 µM			81300 nM	> 100 µM
O=C(Nc1ccc([As](=O)(O)O)cc1)Nc1cccc(Cl)c1Cl		> 100 µM		> 100 µM		> 100 µM		> 100 µM		> 100 µM		> 100 µM		> 100 µM		> 100 µM		67.7 µM		
Clc1nc(Cl)c2ncn(CC3(Cn4cnc5c(Cl)nc(Cl)nc54)COC3)c2n1	184 nM	0.356 µM	1860 nM	59.1 µM	0.57 µM	1.12 µM	362 nM	1.01 µM	0.501 µM	1.69 µM	0.283 µM	0.903 µM	178 nM	0.361 µM	0.276 µM	0.763 µM	0.196 µM	0.405 µM	462 nM	
NS(=O)(=O)c1ccc(-n2nc(-c3ccc(Cl)cc3)cc2-c2cc(O)ccc2O)cc1			3150 nM	11.7 µM	13.4 µM	26.2 µM	13400 nM	32.6 µM	23.9 µM	58.3 µM	7.3 µM	19.2 µM	6280 nM	19.2 µM					5150 nM	> 100 µM
CCNC(=O)C1CCCN1C(=O)C(CCCN=C(N)N)NC(=O)C(CC(C)C)NC(=O)C(CC(C)C)NC(=O)C(Cc1ccc(O)cc1)NC(=O)C(CO)NC(=O)C(Cc1c[nH]c2ccccc12)NC(=O)C(Cc1cnc[nH]1)NC(=O)C1CCC(=O)N1 (configuration not stated) ([pGlu]HWSYLLRP-NHEt; configuration not given here)	> 100000 nM	> 100 µM	74300 nM	> 100 µM	> 100 µM	> 100 µM	> 100000 nM	> 100 µM	> 100 µM	> 100 µM			> 100000 nM	> 100 µM	> 100 µM	> 100 µM	> 100 µM	> 100 µM	> 100000 nM	> 100 µM
CCOC(=O)/C(C=Nc1ccc(-c2nc3ccccc3[nH]2)cc1)=C(/C)O	10700 nM	33.4 µM	8120 nM	40.1 µM	15.4 µM	42.4 µM	7800 nM	24 µM	10 µM	24.9 µM	8.59 µM	17.6 µM	10100 nM	24.4 µM						
CCN1C(=O)N(CC)C2C1NN=c1s/c(=C\c3cccc(F)c3)c(=O)n12 (configuration not stated)	243 nM	4.92 µM	119 nM	7.78 µM	0.196 µM	> 100 µM	85.6 nM	> 100 µM	0.209 µM		0.0539 µM	> 100 µM	54.9 nM	> 100 µM	5.37 µM	> 100 µM			327 nM	> 100 µM
CNC(=O)Nc1nc2ccc([N+](=O)[O-])cc2[nH]1		> 100 µM		> 100 µM		> 100 µM		> 100 µM		> 100 µM				> 100 µM		> 100 µM		> 100 µM		> 100 µM
